Source: PubChem BioAssay AID2060901 (Molecular Pharmacology Branch, DTP, NCI, 2025)
“And” between values parts separate entries of the source, which are not always exact repeats. Equal values may be shown once.

System: 422866-222-R5-J1-PDC complex spheroids viability
Assay: Anticancer human tumor 422866-222-R5-J1-PDC patient-derived pancreatic adenocarcinoma cell line growth inhibition [RAS]
Settings: for viability, T/C: stronger effect = lower value; active = viability on the fitted dose curve at most 10% of control; inactive = the rest
How it was run: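 Agents were tested in combination matrices in half-log decrements from a top concentration at or near clinical Cmax (10 microM if undetermined). Targets were multi-cell spheroids of tumour lines plus HUVEC and MSC stromal cells.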

[1] = curve of first compound, second compound 0.000949 µM
[2] = curve of first compound, second compound 0.003 µM
[3] = curve of first compound, second compound 0.00949 µM
[4] = curve of first compound, second compound 0.03 µM
[5] = curve of first compound, second compound 0.0949 µM
[6] = curve of first compound, second compound 0.3 µM
[7] = second compound 0.000949 µM, first compound 0.000949 µM
[8] = second compound 0.000949 µM, first compound 0.003 µM
[9] = second compound 0.000949 µM, first compound 0.00949 µM
[10] = second compound 0.000949 µM, first compound 0.03 µM
[11] = second compound 0.000949 µM, first compound 0.0949 µM
[12] = second compound 0.000949 µM, first compound 0.3 µM
[13] = second compound 0.003 µM, first compound 0.000949 µM
[14] = second compound 0.003 µM, first compound 0.003 µM
[15] = second compound 0.003 µM, first compound 0.00949 µM
[16] = second compound 0.003 µM, first compound 0.03 µM
[17] = second compound 0.003 µM, first compound 0.0949 µM
[18] = second compound 0.003 µM, first compound 0.3 µM
[19] = second compound 0.00949 µM, first compound 0.000949 µM
[20] = second compound 0.00949 µM, first compound 0.003 µM
[21] = second compound 0.00949 µM, first compound 0.00949 µM
[22] = second compound 0.00949 µM, first compound 0.03 µM
[23] = second compound 0.00949 µM, first compound 0.0949 µM
[24] = second compound 0.00949 µM, first compound 0.3 µM
[25] = second compound 0.03 µM, first compound 0.000949 µM
[26] = second compound 0.03 µM, first compound 0.003 µM
[27] = second compound 0.03 µM, first compound 0.00949 µM
[28] = second compound 0.03 µM, first compound 0.03 µM
[29] = second compound 0.03 µM, first compound 0.0949 µM
[30] = second compound 0.03 µM, first compound 0.3 µM
[31] = second compound 0.0949 µM, first compound 0.000949 µM
[32] = second compound 0.0949 µM, first compound 0.003 µM
[33] = second compound 0.0949 µM, first compound 0.00949 µM
[34] = second compound 0.0949 µM, first compound 0.03 µM
[35] = second compound 0.0949 µM, first compound 0.0949 µM
[36] = second compound 0.0949 µM, first compound 0.3 µM
[37] = second compound 0.3 µM, first compound 0.000949 µM
[38] = second compound 0.3 µM, first compound 0.003 µM
[39] = second compound 0.3 µM, first compound 0.00949 µM
[40] = second compound 0.3 µM, first compound 0.03 µM
[41] = second compound 0.3 µM, first compound 0.0949 µM
[42] = second compound 0.3 µM, first compound 0.3 µM
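Note: spheroids exposed to compounds for 7 days.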
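Throughout, for viability, T/C: 100% = DMSO vehicle control viability.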

CC1(C)CCC(Nc2ncc(C(F)(F)F)c(-c3c[nH]c4c(P(C)(C)=O)c(C#N)ccc34)n2)CN1 (stereo not given) + CCn1c(-c2cccnc2C(C)OC)c2c3cc(ccc31)N1CCOC(CC(NC(=O)C(C(C)C)N(C)C(=O)C3(F)CCN(C(=O)C#CC(C)(C)N(C)C)CC3)C(=O)N3CCCC(N3)C(=O)OCC(C)(C)C2)C1
< 0.949 nM: IC50 [1] | IC50 [2] | IC50 [3] | IC50 [4] | IC50 [5] | IC50 [6]
inactive: viability, T/C [7] 27.9% | viability, T/C [8] 27% | viability, T/C [9] 30.9% | viability, T/C [10] 31.1% | viability, T/C [11] 31% | viability, T/C [12] 32.6% | viability, T/C [13] 25.2% | viability, T/C [14] 27% | viability, T/C [15] 27.6% | viability, T/C [16] 24.8% | viability, T/C [17] 28.6% | viability, T/C [18] 26.9% | viability, T/C [19] 24.1% | viability, T/C [20] 24.4% | viability, T/C [21] 26.1% | viability, T/C [22] 26.2% | viability, T/C [23] 26.1% | viability, T/C [24] 27.2% | viability, T/C [25] 24.2% | viability, T/C [26] 25.8% | viability, T/C [27] 24.2% | viability, T/C [28] 26.3% | viability, T/C [29] 28.2% | viability, T/C [30] 28.5% | viability, T/C [31] 20.1% | viability, T/C [32] 22.7% | viability, T/C [33] 25.4% | viability, T/C [34] 23.6% | viability, T/C [35] 26.7% | viability, T/C [36] 25.6% | viability, T/C [37] 20% | viability, T/C [38] 22.8% | viability, T/C [39] 24.2% | viability, T/C [40] 24.8% | viability, T/C [41] 28.1% | viability, T/C [42] 24.6%

CCc1c2c(nc3ccc(O)cc13)-c1cc3c(c(=O)n1C2)COC(=O)[C@]3(O)CC + CCn1c(-c2cccnc2C(C)OC)c2c3cc(ccc31)N1CCOC(CC(NC(=O)C(C(C)C)N(C)C(=O)C3(F)CCN(C(=O)C#CC(C)(C)N(C)C)CC3)C(=O)N3CCCC(N3)C(=O)OCC(C)(C)C2)C1
active: viability, T/C [41] 10.3% | viability, T/C [42] 7%
< 0.949 nM: IC50 [1] | IC50 [2] | IC50 [3] | IC50 [4] | IC50 [5] | IC50 [6]
inactive: viability, T/C [7] 28.2% | viability, T/C [8] 22.7% | viability, T/C [9] 26.9% | viability, T/C [10] 22% | viability, T/C [11] 19.6% | viability, T/C [12] 15.6% | viability, T/C [13] 24.8% | viability, T/C [14] 15.5% | viability, T/C [15] 15.5% | viability, T/C [16] 14.1% | viability, T/C [17] 15.5% | viability, T/C [18] 15.1% | viability, T/C [19] 22.1% | viability, T/C [20] 17.7% | viability, T/C [21] 17.7% | viability, T/C [22] 15% | viability, T/C [23] 14.6% | viability, T/C [24] 12.3% | viability, T/C [25] 19.5% | viability, T/C [26] 15.7% | viability, T/C [27] 14.8% | viability, T/C [28] 13.9% | viability, T/C [29] 13.2% | viability, T/C [30] 10.7% | viability, T/C [31] 15.9% | viability, T/C [32] 13% | viability, T/C [33] 11.3% | viability, T/C [34] 12.3% | viability, T/C [35] 11.1% | viability, T/C [36] 9.62% | viability, T/C [37] 13.9% | viability, T/C [38] 14.3% | viability, T/C [39] 11.5% | viability, T/C [40] 10.7%

CC1(O)CCCC1n1c(=O)c(C(F)F)cc2cnc(NC3CCN(S(C)(=O)=O)CC3)nc21 (stereo not given) + C=CC(=O)N1CCN(c2nc(OCC3CCCN3C)nc3c(F)c(-c4nc(N)cc(C)c4C(F)(F)F)c(Cl)cc23)C(C)C1
< 31.6 nM: IC50 (curve of first compound, second compound 0.00316 µM) | IC50 (curve of first compound, second compound 0.01 µM) | IC50 (curve of first compound, second compound 0.0316 µM) | IC50 (curve of first compound, second compound 0.1 µM) | IC50 (curve of first compound, second compound 0.316 µM) | IC50 (curve of first compound, second compound 1 µM)
inactive: viability, T/C (second compound 0.00316 µM, first compound 0.0316 µM) 32.6% | viability, T/C (second compound 0.00316 µM, first compound 0.1 µM) 25.6% | viability, T/C (second compound 0.00316 µM, first compound 0.316 µM) 26% | viability, T/C (second compound 0.00316 µM, first compound 1 µM) 31.4% | viability, T/C (second compound 0.00316 µM, first compound 3.16 µM) 33.3% | viability, T/C (second compound 0.00316 µM, first compound 10 µM) 33.1% | viability, T/C (second compound 0.01 µM, first compound 0.0316 µM) 27.6% | viability, T/C (second compound 0.01 µM, first compound 0.1 µM) 25.8% | viability, T/C (second compound 0.01 µM, first compound 0.316 µM) 28.1% | viability, T/C (second compound 0.01 µM, first compound 1 µM) 25.4% | viability, T/C (second compound 0.01 µM, first compound 3.16 µM) 30.3% | viability, T/C (second compound 0.01 µM, first compound 10 µM) 33.9% | viability, T/C (second compound 0.0316 µM, first compound 0.0316 µM) 33.6% | viability, T/C (second compound 0.0316 µM, first compound 0.1 µM) 20.7% | viability, T/C (second compound 0.0316 µM, first compound 0.316 µM) 22.5% | viability, T/C (second compound 0.0316 µM, first compound 1 µM) 21.6% | viability, T/C (second compound 0.0316 µM, first compound 3.16 µM) 26.5% | viability, T/C (second compound 0.0316 µM, first compound 10 µM) 24.9% | viability, T/C (second compound 0.1 µM, first compound 0.0316 µM) 18.4% | viability, T/C (second compound 0.1 µM, first compound 0.1 µM) 19.9% | viability, T/C (second compound 0.1 µM, first compound 0.316 µM) 22.1% | viability, T/C (second compound 0.1 µM, first compound 1 µM) 23% | viability, T/C (second compound 0.1 µM, first compound 3.16 µM) 28% | viability, T/C (second compound 0.1 µM, first compound 10 µM) 29.3% | viability, T/C (second compound 0.316 µM, first compound 0.0316 µM) 21.9% | viability, T/C (second compound 0.316 µM, first compound 0.1 µM) 20.4% | viability, T/C (second compound 0.316 µM, first compound 0.316 µM) 23.6% | viability, T/C (second compound 0.316 µM, first compound 1 µM) 23.8% | viability, T/C (second compound 0.316 µM, first compound 3.16 µM) 29.7% | viability, T/C (second compound 0.316 µM, first compound 10 µM) 35.3% | viability, T/C (second compound 1 µM, first compound 0.0316 µM) 20.6% | viability, T/C (second compound 1 µM, first compound 0.1 µM) 20.3% | viability, T/C (second compound 1 µM, first compound 0.316 µM) 23.9% | viability, T/C (second compound 1 µM, first compound 1 µM) 23.4% | viability, T/C (second compound 1 µM, first compound 3.16 µM) 30.6% | viability, T/C (second compound 1 µM, first compound 10 µM) 40.1%

CC(C)NCC(C(=O)N1CCN(c2ncnc3c2C(C)CC3O)CC1)c1ccc(Cl)cc1 (stereo not given)
> 10000 nM: IC50 (curve of compound)
inactive: viability, T/C (compound 0.0316 µM) 92.2% [middle of 4 runs] | viability, T/C (compound 0.1 µM) 93.6% [middle of 4 runs] | viability, T/C (compound 10 µM) 133% (2×) and 147% and 160%
